The numbers were not newly measured in patent US20210267912A1, “METHYL SULFONYL METHANE-CONTAINING COMPOSITION FOR PREVENTING OR ALLEVIATING OBESITY, FATTY LIVER, AND DIABETES” (priority 2018, published 2021), which cites them from elsewhere.

Structures are written as SMILES.

For the data set the following is noted: animal toxicity test.

With `CS(C)(=O)=O` [Methylsulfonylmethane], the Half lethal dose result was “more than 20 g per 1 kg of body weight”.
